Experimental data published in patent US12479784B2, “Trisphenol derivative” (HONSHU CHEMICAL INDUSTRY CO., LTD., priority 2020, dated 2025).

Assays:
[1] = Evaluation Test 1: Solubility at 30° C. in ethyl lactate; type: physicochemical; settings: for Solubility (g/100 g, 30° C.): in ethyl lactate, stirred 3 hours, HPLC quantification
Experimental: (4) Conditions of solubility measurement and analysis of comparative compounds (x) and (y)
<Evaluation Test 1: Solubility at 30° C.>
For compound (C1) and compound (C2) obtained in Examples and the following two compounds having six functional groups likewise and reported as crosslinking agents, the solubility at 30° C. in ethyl lactate widely used as a resist solvent was measured. The following compounds are referred to as “comparative compound (x)” and “comparative compound (y)”.
A cross-shaped stirrer and 10 g of ethyl lactate were added to a 100 ml test tube, and after 10 g of comparative compound (x) (or (y)) was added, a siphon was attached. Under nitrogen purge, the test tube was set in a pre-conditioned water bath at 30° C. and stirred with the stirrer for 3 hours. After the stirring for 3 hours, the internal solution was sampled with a pipette, and solids were filtered off from the sampled solution through a syringe filter to put a filtrate in a 50 ml measuring flask. This was diluted to the 50 ml mark with methanol for HPLC and analyzed with a high-performance liquid chromatography analyzer. From the results obtained, comparative compound (x) (or (y)) in the filtrate was quantified using the peak area of comparative compound (x) (or (y)), and the solubility (=quantitative value (mg) of comparative compound (x) or (y)/(weight (mg) of filtrate put in 50 ml measuring flask through syringe filter-quantitative value (mg) of comparative compound (x) or (y)) was calculated.
Method of constructing calibration curve: comparative compound (x) (or (y)) used in the test was analyzed by HPLC, and an approximate straight line obtained by plotting the peak area of comparative compound (x) (or (y) on the horizontal axis and the concentration (mg/50 ml) of comparative compound (x) (or (y)) on the vertical axis with “intercept=0” was used as a calibration curve of comparative compound (x) (or (y)).

[2] = Evaluation Test 2: Low-temperature storage stability (dissolution stability) of ethyl lactate solutions; type: physicochemical; parameters: key to Solution storage test 5° C. / Solution storage test −5° C.: ∘: Completely dissolved, and neither precipitation of crystals nor separation of oily components can be visually observed.; x: Precipitation of crystals or separation of oily components can be visually observed; settings: for Solution storage test −5° C. / Solution storage test 5° C.: ethyl lactate solution; for Solution storage test −5° C.: freezer −5° C.; for Solution storage test −5° C. / Solution storage test 5° C. / Crystallization on storage, in words: 30 days; for Solution storage test 5° C.: refrigerator 5° C.; for Crystallization on storage, in words: ethyl lactate solutions, both at 5° C. and −5° C.
Experimental: <Evaluation Test 2: Low-Temperature Storage Stability (Dissolution Stability)>
In a 50 ml screw tube, 4.29 g of compound (C1), the inventive compound, and 5.71 g of ethyl lactate were placed and mixed, and the screw tube was put in a water bath set at 30° C. and stirred by shaking it by hand. Complete dissolution was visually observed, thus preparing an ethyl lactate solution with a compound (C1) concentration of 42.9 wt %.
In the same manner as for compound (C1), an ethyl lactate solution with a compound (C2) concentration of 40 wt %, an ethyl lactate solution with a compound (C2) concentration of 50 wt %, and an ethyl lactate solution with a compound (y) concentration of 40 wt % were prepared.
These solutions were subjected to solution storage tests in a refrigerator (5° C.) and a freezer (−5° C.) for 30 days.
∘: Completely dissolved, and neither precipitation of crystals nor separation of oily components can be visually observed.
x: Precipitation of crystals or separation of oily components can be visually observed.

Row | Solubility (g/100 g, 30° C.) [1] [g/100 g] | Solution storage test −5° C. ([2]; concentration 40.0 wt %) | Solution storage test 5° C. ([2]; concentration 40.0 wt %) | Crystallization on storage, in words [2] | Re-dissolution of precipitated crystals ([2]; test sample with precipitated crystals left at room temperature (22° C.) for one day) | Solubility in ethyl lactate relative to comparative compound (x) ([1]; ethyl lactate) | Solubility in ethyl lactate relative to comparative compound (y) ([1]; ethyl lactate) | Solubility (g/100 g, 30° C.) ([1]; listed as compound (C2)) | Solution storage test −5° C. ([2]; concentration 50.0 wt %) | Solution storage test 5° C. ([2]; concentration 50.0 wt %) | Compound
1 | 84.0 | x | x | experienced crystal precipitation | did not dissolve again | – | – | – | – | – | COCc1cc(C(C)(c2cc(COC)c(O)c(COC)c2)c2cc(COC)c(O)c(COC)c2)cc(COC)c1O [(y), reference compound]
2 | 38.7 | – | – | – | – | – | – | – | – | – | COCc1cc(C(C)(C)c2ccc(C(C)(c3cc(COC)c(O)c(COC)c3)c3cc(COC)c(O)c(COC)c3)cc2)cc(COC)c1O [Comparative compound (x), reference compound]
3 | > 100 | ∘ | ∘ | did not crystallize at all | – | more than twice higher | more soluble | more than 100.0 g/100 g | ∘ | ∘ | COCc1cc(CCC(C)(c2cc(COC)c(O)c(C3CCCCC3)c2)c2cc(COC)c(O)c(C3CCCCC3)c2)cc(COC)c1O [Compound (C2)]
